The subject of assay [1] is Fmt6363T (human mitochondrial G-quadruplex). As to the kind of experiment: FRET melting assay, Fmt6363T. The assay is classed as binding. As to conditions: oligonucleotide 200 nM.
Assay [2] relates to mt6363 (DNA, G4) AGGGACGCGGGCGGGGGATATAGGGT
As to the kind of experiment: CD titration. As to conditions: K+ (100 mM potassium phosphate); pH 7.4, 20 °C, DNA 5 µM.

Assay [3] concerns F21T Na+ (human telomeric G-quadruplex, sodium buffer). In kind it is binding. As to conditions: oligonucleotide 200 nM.
Another assay deals with HT-29 cells. As to the kind of experiment: alamarBlue antiproliferative assay, HT-29. The assay is classed as cell-based, human. As to conditions: Homo sapiens, HT-29; 72 h, alamarBlue. (In general: Alamar Blue is a resazurin reagent that responds to reducing activity.)
The next assay deals with THP-1 cells. As to the kind of experiment: alamarBlue cytotoxicity assay, PMA-differentiated THP-1. In kind it is cell-based, human. As to conditions: Homo sapiens, PMA-differentiated THP-1, 72 h.
The test system of assay [4] is F10T (DNA, hairpin, hexaethylene glycol (HEG, [(-CH2CH2O-)6]) linker between 10 and 11) TATAGCTATATATAGCTATA
As to the kind of experiment: FRET melting. Conditions: K+ (10 mM KCl), 90 mM LiCl; 10 mM Li cacodylate; compound 10 µM, DNA 200 nM.

In assay [5] the test system is telo23 (DNA, G4) TAGGGTTAGGGTTAGGGTTAGGG
In words: CD titration. As to conditions: K+ (100 mM potassium phosphate); pH 7.4, 20 °C, DNA 5 µM.

Assay [6] concerns FMycT (c-Myc promoter G4). As to the kind of experiment: FRET melting assay, FMycT. As to conditions: oligonucleotide 200 nM. The assay is classed as binding.
Assay [7] concerns FEbr1T (T. brucei G-quadruplex). As to the kind of experiment: FRET melting assay, FEbr1T. In kind it is binding. As to conditions: oligonucleotide 200 nM.
Assay [8] has as its system bloodstream form of T. brucei. In words: alamarBlue (resazurin) antitrypanosomal assay. In kind it is cell-based, Trypanosoma brucei. As to conditions: Trypanosoma brucei; bloodstream form, 72 h, alamarBlue/resazurin; error as σ.
For the next assay, the system named is HeLa cells. In words: alamarBlue antiproliferative assay, HeLa. In kind it is cell-based, human. As to conditions: Homo sapiens, HeLa; 72 h, alamarBlue.
For the next assay, the system named is mt6363 G4. As to the kind of experiment: UV-vis absorbance titration. Conditions: ligand 10 μM, 100 mM potassium phosphate, pH 7.4; numbers only in Figure 6. In kind it is binding, human. The method, then:
Furthermore, the analysis confirmed its selectivity for G4 structures over duplex DNA.
6 (A) Equilibrium binding constants calculated for compounds 2b and 2c with several G-quadruplexes (telo23, Ebr1, and mt6363) and a duplex DNA (ds26) sequence. (B) UV–vis titration of 2b with telo23, mt6363, Ebr1, and ds26. Buffer = 100 mM potassium phosphate, pH 7.4. Ligand concentration: 10 μM. […]
oligonucleotides were at a concentration of 5 µM in potassium phosphate buffer (100 mM, pH 7.4). Data processing was carried out using Python and Prism 10 (GraphPad Software) with a 4-point second order smoothing polynomial applied to all spectra. Observed ellipticities were converted to molar ellipticity.
Absorbance spectra were recorded on a Cary 60 UV-Visible spectrophotometer using a room-light immune fibre optic probe with 10 mm path length. The UV-Vis spectra were recorded between 700 – 300 nm and were corrected for background and buffer absorbance.
In the titrations, the concentration of ligand was fixed at 10 µM in an initial volume of 500 µL in potassium phosphate buffer (100 mM, pH 7.4). […]
Table S1. Synthesis and photophysical data in acetonitrile solution (absorption, λabs, fluorescence emission maxima, λfluo, molar absorptivity, Ɛ and fluorescence quantum yield, ɸF) for the 2-ethenyl-benzothiazolium derivatives 2a-j. […]

Assay [9] has as its system Fmt6363T (DNA, G4) AGGGACGCGGGCGGGGGATATAGGGT
As to the kind of experiment: FRET melting. As to conditions: K+ (10 mM KCl), 90 mM LiCl; 10 mM Li cacodylate; compound 10 µM, DNA 200 nM.

In assay [10] the test system is F10T (hairpin duplex DNA). In kind it is binding. As to conditions: oligonucleotide 200 nM.
Assay [11] deals with intracellular amastigote form of L. major. As to the kind of experiment: Luciferase assay, intracellular amastigotes in THP-1 macrophages. In kind it is cell-based, Leishmania major. As to conditions: Leishmania major. The method, then: The antileishmanial activity of the compounds against the intracellular form of L. major was evaluated using the Luciferase Assay System kit from Promega. THP-1 cells were seeded at a density of 3 × 10^5 cells/mL in 96-well plates (100 μL/well) and treated with 20 ng/mL PMA (phorbol 12-myristate 13-acetate, Sigma) for 48 h to induce differentiation. Postdifferentiation, the cells were washed, and fresh medium was added (100 μL/well) before being reincubated. Following an additional 24 h, the wells were washed, and 50 μL of L. major parasites at a density of 1.5 × 10^6 parasites/mL (suspended in RPMI-1640 medium 5% hiFBS and 5% penicillin/streptomycin) were added to the wells. The plates were then incubated at 35 °C in 5% CO2. After 24 h, the wells were washed three times with PBS, and fresh medium with increasing concentrations of compounds was added (100 μL/well). After another 72 h of incubation, the cells were then treated with 25 μL of lysis buffer and stored at −80 °C. Following 24 h, 25 μL of luciferase enzyme substrate was added to each well, and the luciferase activity of the amastigotes was determined using a TECAN Infinite F200 microplate reader. […] Data were presented as the average of at least three independent measurements, each conducted under triplicate conditions.
Parasite and cell culturing […]
Leishmania major (MHOM/IL/80/Friedlin) promastigotes and its derivative luminescent strain L. major LucRE9 with the luciferase gene integrated into the parasite genome (LUC) were cultured at 28 °C, 5 % CO2 in modified RPMI-1640 medium (Invitrogen, Carlsbad, CA) supplemented with 10 % hiFBS6, including […] blasticidin in the LucRE9 strain. 7 Parasites were maintained in culture in their […] growth phase (below 2 million T. brucei parasites per mL, ,10 million L. major parasites per mL for promastigotes experiments), and in the stationary phase , 20 million L. major parasites per mL for THP -1 infection experiments.
MRC-5 cell line (human lung fibroblast) was grown in monolayer at 37 °C, 5 % CO2 in DMEM medium (1 g/L glucose) supplemented with 10% hiFBS, 100 U/mL penicillin, […] streptomycin and 2 mM L-glutamine.8
THP-1 cells (human monocytic cell line) were maintained in RPMI-1640 medium supplemented with 10% heat-inactivated fetal bovine serum (hiFBS) and 5 % penicillin/streptomycin (37 °C, 5 % CO2, and 100 % humidity). […]

A further assay has as its system BSF T. brucei parasites. In words: CellTiter-Glo luminescent cell viability assay. In kind it is cell-based. Conditions: Trypanosoma brucei, 72 h, read-out: IC50 T. brucei (CellTiter-Glo).
Assay [12] relates to Ebr1 (DNA, G4) GGGCAGGGGGTGATGGGGAGGAGCCAGGG
As to the kind of experiment: CD titration. As to conditions: K+ (100 mM potassium phosphate); pH 7.4, 20 °C, DNA 5 µM.

In assay [13] the test system is F21T K+ (human telomeric G-quadruplex, potassium buffer). The assay is classed as binding. Conditions: oligonucleotide 200 nM.
Assay [14] deals with promastigote form of L. major. Also on record: method as in number not given. As to conditions: promastigotes; footnote c 'From ref', ref number not given; cited from earlier work.
Another assay concerns MRC-5 cells. More on the design: method as in number not given. As to conditions: footnote c 'From ref', ref number not given; cited from earlier work.
The test system of assay [15] is bloodstream form of T. brucei. More on the design: method as in number not given. As to conditions: footnote c 'From ref', ref number not given; cited from earlier work.

Like-named read-outs stand apart in the source and are kept apart here.

The text below walks through data of PMC12643529 (ACS Infectious Diseases, 2025).

Experimental for BSF T. brucei parasites: Ten μL portion of Cell Titer Glo was then added to every well, and after 10 min of incubation at room temperature, the luminescence of the plates was recorded using the Infinite F200 plate reader (TECAN Austria, GmbH). […] Presented data are the mean value of three independent measurements, all of them conducted under triplicate conditions.

On to `CN(C)c1ccc(/C=C/c2sc3ccccc3[n+]2C)cc1.[I-]` [compound 2b], for which the “ΔTm Fmt6363T” value in assay [1] (ligand 10 μM, 10 mM KCl) is 19.8 °C. Moreover, the binding entry in [2], in assay [5] and in assay [12] was “yes” throughout. Also, the “ΔTm F21T Na+” value in assay [3] (ligand 10 μM, 100 mM NaCl) was determined as 9.1 ± 0.3 °C. Further, the half-inhibitory concentration (IC50) in the assay on HT-29 cells was 6560 ± 490 nM; with THP-1 cells, 480 ± 110 nM; in assay [8], 0.019 ± 0.0053 nM; in the assay with HeLa cells, 9280 ± 770 nM; in assay [11] (THP-1, intracellular amastigotes), 0.48 nM; in [11] (intracellular amastigotes in THP-1 macrophages, 72 h, luciferase), 0.484 ± 0.617 nM. Moreover, the half-inhibitory concentration (IC50) in the assay on BSF T. brucei parasites stood at 0.55 ± 0.23 nM. The ΔTm in assay [4] was determined as 2.3 ± 0.2 °C; in [9], 19.8 ± 0.4 °C. Moreover, the “ΔTm FMycT” value in assay [6] (ligand 10 μM, 1 mM KCl) is 8.6 ± 0.9 °C. Moreover, the “ΔTm FEbr1T” value in assay [7] (ligand 10 μM, 10 mM KCl) was determined as 13.1 °C. Moreover, the “binding affinity (equilibrium binding constant)” value in the assay on mt6363 G4 was “higher affinity for the mt6363 G4 structure compared with the other G4 sequences”. In assay [10] (ligand 10 μM, 10 mM KCl), the “ΔTm F10T” value was found to be 2.3 ± 0.2 °C. Further, the “ΔTm F21T K+” value in assay [13] (ligand 10 μM, 10 mM KCl) turned out to be 13.1 ± 0.5 °C.
For `C[n+]1ccc(-c2c3nc(c(-c4cc[n+](C)cc4)c4ccc([nH]4)c(-c4cc[n+](C)cc4)c4ccc([nH]4)c(-c4cc[n+](C)cc4)c4nc2C=C4)C=C3)cc1` [TMPyP4, reference compound], the half-inhibitory concentration (IC50) in [14] is 20800 ± 4860 nM; in the assay with MRC-5 cells it was greater than 25000 nM; in assay [15], greater than 10000 nM. The “ΔTm Fmt6363T” value in assay [1] (positive control at 1 μM) is 7.1 ± 0.4 °C. The “ΔTm F21T Na+” value in assay [3] (positive control at 1 μM) is 10.4 ± 0.4 °C. Also, the “ΔTm FMycT” value in assay [6] (positive control at 1 μM) was 12.6 ± 1.1 °C. Further, the “ΔTm FEbr1T” value in [7] (positive control at 1 μM) turned out to be 12.4 ± 0.9 °C. Further, the “ΔTm F10T” value in assay [10] (positive control at 1 μM) worked out at 1.7 ± 0.1 °C. Moreover, the “ΔTm F21T K+” value in assay [13] (positive control at 1 μM) is 16.4 ± 0.4 °C.

For orientation: IC50 means the concentration at which inhibition is half-maximal. As usually defined, the ΔTm is the shift of the melting midpoint relative to a reference.
